From US20250057858A1, “COMPOSITIONS AND METHODS FOR TREATING NEUROLOGICAL DISORDERS WITH COMBINATION PRODUCTS” (Neurotech International Ltd, priority 2021, published 2025)

Tests used:
TNF-alpha = experiment: Multiplex cytokine assay, TNF-alpha, microglial cells (Example 4); format: cell-based, human; settings: 2 μg/ml
Procedure: (§1) Multiplex Cytokine/Chemokine Assay: Microglia media harvested following treatment initiation was centrifuged briefly to remove particulates (300 g for 10 min). Cytokine and chemokine levels in the microglial media were measured using a Bio-Plex 200 with a 96-well magnetic plate assay according to the manufacturer's instructions (Bio-Rad). Cytokines and chemokines measured included IL-1α, IL-1β, IL-2, IL-6, IL-10, IL-12 (p70), IL-13, G-CSF, GM-CSF, IFNγ, TNFα, CXCL1 (KC), CCL2 (MCP-1), and CCL5 (RANTES). All samples were run in duplicate and data were analyzed with the Bio-Plex Manager software.
(§2) 500 mg of dried plant material of NTI164 is suspended in 20 ml of absolute ethanol (using 50 ml blue top falcon tubes appropriate for centrifugation) and stirred/shaken vigorously for 60 seconds. The tubes are then placed in a sonication bath for 10 mins at 35-40 C. Upon completion of the sonication samples are then placed in a tray shaker (200 rpm) for 30 minutes at room temperature. Once completed the samples are then centrifuged at 4400 rpm for 5 minutes. The supernatant is collected for testing and development.
(§3) Units used to describe treatments for test products and concentrations for NTI164. • a. 1/1000 dilution of extract—10 µL (stock material is NTI164—10 µL, which equates to 2 μg/ml of CBDA) • b. […]

IL-12 = experiment: Multiplex cytokine assay, IL-12, microglial cells (Example 4); format: cell-based, human; settings: 2 μg/ml
Procedure: as §1, §2, §3

COX-2 [1] = experiment: COX-2 immunohistochemistry in human derived microglial cells (Example 4); format: cell-based; settings: for COX-2 expression (Avg +/− SEM): 2 μg/ml, N=9
Procedure: Immunohistochemistry (Protein Level) Assay: Cells were fixed for 10 min with 4% paraformaldehyde (PFA) in PBS. After 3×5 minutes washing with PBS, cells were incubated with primary antibodies (anti-COX2) 1:1000 overnight at 4° C., and after 3×5 minutes washing in PBS, cells were then incubated in appropriate fluorescent secondary antibody 1:250 (Invitrogen) for 2 hours at room temperature. After a final wash, as previous, cells nuclei were stained with DAPI in the mounting media. Photomicrographs were taken of the cells in three fields of view per well from duplicate wells and analysed using Fiji for area coverage of each marker.
as §2
Units used to describe treatments for test products and concentrations for NTI164. • a. 1/1000 dilution of extract—10 µL (stock material is NTI164—10 µL, which equates to 2 μg/ml of CBDA) • b. 1/3000 dilution of extract—3 µL (stock material is NTI164—3 µL, which equates to […] of CBDA) • c. 1/10000 dilution of extract—1 µL (stock material is NTI164—1 µL, which equates to 0.1 μg/ml of CBDA)
For the CBD sample, a pure standard (in powder form) was used. CBD 98% isolate was purchased as a reference standard from LGC Standards (London UK) (CAS No. 13956-29-1). The CBD standard reference was prepared at concentration of 1 mg/ml (in acetonitrile). CBD dilutions were made in acetonitrile as follows: 2 μg/ml; 6 μg/ml; and 0.1 μg/ml.
The final concentration of NTI164 (CBDA equivalent) and CBD that was used in these studies was 2 μg/ml.

[2] = test system: cells in an excitotoxic cell injury paradigm; experiment: Cell death in an excitotoxic cell injury paradigm; format: cell-based
Procedure: Neuronal viability was quantified using MTT [3-(4,5-dimethylthiazol-2-yl-)-2,5-diphenyl-2H-tetrazolium bromide; Sigma]. NTI164 treated celled were able to increase the number of “healthy” cells under basal conditions following short term glutamate exposure. Cellular excitotoxicity was achieved via glutamate activation (3 mM). NTI164 was able to stimulate cell growth after short term glutamate induced “insult”.

COX-2 [3] = experiment: COX-2 protein, NTI164 plus prednisone (Example 8); format: cell-based; settings: PDN 5 uM; NTI164 7.5 ug/ml; Interleukin & Interferon activation =1
Procedure: Cells were fixed for 10 min with 4% paraformaldehyde (PFA) in PBS. After 3×5 minutes washing with PBS, cells were incubated with primary antibodies. (anti-COX2) 1:1000 overnight at 4° C., and after 3×5 minutes washing in PBS, cells were then incubated in appropriate fluorescent secondary antibody 1:250 (Invitrogen) for 2 hours at room temperature. After a final wash, as previous, cells nuclei were stained with DAPI in the mounting media. Photomicrographs were taken of the cells in three fields of view per well from duplicate wells and analysed using Fiji for area coverage of each marker.
Treatment groups include: • (1) Control: PBS Buffer • (2) Positive control: Inflammatory stimulation by Interferon gamma and Interleukin-1B activation Prednisone (PDN) concentration 5 uM • (3) Combination therapy: Prednisone (PDN) 5 uM+NTI164 concentration 7.5ug/ml
Result Analysis: Calculated as % reduction in inflammation, PDN versus Combination therapy (prednisone 5 uM+NTI164 concentration 7.5ug/ml). Student's t-test was used for statistical analysis.

TNFα = TNFα in microglial culture media, NTI164 plus psylocibin (Example 9); format: cell-based; settings: PBS Control 1.00, Positive activation I&I 10.67
Procedure: Microglia media harvested following treatment initiation was centrifuged briefly to remove particulates (300 g for 10 min). The level of TNFα in the microglial culture media was measured using a Bio-Plex 200 with a 96-well magnetic plate assay according to the manufacturer's instructions (Bio-Rad). The samples were run in duplicate that were averaged for analysis. At least three samples per group were run.

[4] = Interleukin and Interferon activation
[5] = exposure 1 hour after inflammatory insult
[6] = exposure 1 hour prior to inflammatory insult

Compound: C=C(C)[C@@H]1CCC(C)=C[C@H]1c1c(O)cc(CCCCC)cc1O [CBD, cannabidiol]
- Statistical Significance Reduction Compared to Control Alone (P), TNF-alpha (TNF-alpha): = 0.0005
- TNF-alpha, Average (TNF-alpha; [4]): 71.13
- Statistical Significance Reduction Compared to Control Alone (P), IL-12 (IL-12): = 0.008
- IL-12, Average (IL-12; [4]): 84.40
- P, positive control vs treatment (COX-2) (COX-2 [1]; [5]): P = 0.0566
- COX-2 expression (Avg +/− SEM) (COX-2 [1]; [5]): 76.32 +/− 7.95 (SEM)
- P, positive control vs treatment (COX-2) (COX-2 [1]; [6]): P = 0.3237
- COX-2 expression (Avg +/− SEM) (COX-2 [1]; [6]): 84.82 +/− 7.65 (SEM)
- cell death / toxicity [2]: toxic

Compound: C[C@]12C=CC(=O)C=C1CC[C@@H]1[C@@H]2C(=O)C[C@@]2(C)[C@H]1CC[C@]2(O)C(=O)CO [PDN, Prednisone]
- COX-2 Protein (COX-2 [3]): 0.888

Compound: CN(C)CCc1c[nH]c2cccc(OP(=O)(O)O)c12 [SubP (Psylocibin), Psylocibin]
- TNF-ALPHA ASSESSMENTS RESULTS (TNFα; 1 ug/ml): 4.87
- TNF-ALPHA ASSESSMENTS RESULTS (TNFα; 5 ug/ml): 9.17
